Read-outs that look alike come from different tables or passages of the source.
Legend:
Sprague-Dawley rats [1] = assay: animal or person; assay type: in vivo; settings: rats; for ED50: Rattus norvegicus, LORR, up and down method, tail vein, class symbols, read-out: ED50
Source text: (§1) Evaluating indicator: The end point of anesthesia: the disappearance of forepaw righting reflex (lorr) was used as the end point of anesthesia; General anesthesia effect: the disappearance of forepaw righting reflex in rats lasting for 30 seconds is taken as the index of general anesthesia effect; Anesthesia recovery index: the recovery of rat forepaw righting reflex was used as the index of anesthesia recovery.

Sprague-Dawley rats [2] = assay: Pharmacological effect and adverse reactions under the equivalent dose (2ED50), Group D compounds; assay type: in vivo; settings: for Righting reflex duration / Sedation duration / Onset time: 2ED50, tail vein, rats, n=8; for Adverse reaction: Convulsions / Adverse reaction: Cough, broken-winded / Adverse reaction: Euphoria / Adverse reaction: Four limbs rigidity / Adverse reaction: Red urine / Adverse reaction: Slower breathing, Tetany convulsion / Adverse reaction: Systemic stiffness, Convulsions, Opisthotonus / Adverse reaction: Tongue stretching / Adverse reaction: Tremor: equivalent dose (2 × ED50), number of rats of n = 8
Source text: (§2) Evaluation index: onset time: from the completion of drug injection to the disappearance of forepaw righting reflex in rats; Duration of anesthesia: the time from the disappearance of rat forepaw righting reflex to the recovery of rat forepaw righting reflex; Recovery time of anesthesia: the time from the […] to complete recovery;

SD rats [3] = settings: for After the infusion is stopped: Righting reflex recovery time / Recovery time after stopping infusion: after 1 hour continuous infusion at 2 times the MIR; for After the infusion is stopped: Righting reflex recovery time / Recovery time after stopping infusion / Sedation onset time: SD rats; for Sedation onset time: continuous tail vein infusion at 2 times the MIR
Protocol: (§3) Experimental Methods: Adult male SD rats with body weight ranging from 250 g to 350 g were selected for continuous infusion test.
(§4) Evaluation indexes: the time from the beginning of continuous infusion to the […] of sedation in rats; the time from the cessation of infusion to the restoration of the forepaw turning reflex after 1 hour of continuous infusion; the time from the cessation of infusion to the complete restoration of rats after 1 hour of continuous infusion.

Sprague-Dawley rats [4] = assay type: in vivo; settings: tail vein
Sprague-Dawley rats [5] = assay: animal or person; assay type: in vivo; settings: rats
Source text: as §1, with “LORR” for “the disappearance of forepaw righting reflex (lorr)”

Sprague-Dawley rats [6] = assay: Pharmacological effect and adverse reactions under the equivalent dose (2ED50), Group C compounds; assay type: in vivo
Source text: as §2

adrenal cortex function = assay: Adrenocortical function in rats: corticosterone after dexamethasone and ACTH, Group C compounds
Protocol: Instruments and equipment: multi-function ion meter (METTLER TOLEDO, models: SevenMulti), pipetting gun (Eppendorf, specifications: 1000 ul, 200 ul, 100 ul, 10 ul), electronic balance (model: ME215S, manufacturers: Sartorius, Germany), the timer. Experimental Method: Adult male Sprague-Dawley rats (250-300 g) were selected for the experiment (n=8), all the experiment were started in the morning. Place indwelling needles in tail vein of rats and inject dexamethasone (0.5 mg/kg). The first time of blood collection (S1) is in two hours later, and give dexamethasone (0.2 mg/kg). […] All the drugs were administered in a volume of 0.6 ml and at a rate of 0.1 ml/s. 15 min later, exogenous ACTH (25 ug/kg) was injected. Another blood sample was collected after 30 min(S2). The blood samples were left standing at room temperature for 30-60 min, followed by centrifugation at 3500 rpm for 10 min. The supernatant was taken and centrifuged again at 15000 rpm for 5 min before being frozen and stored in a −20° C. refrigerator.
Evaluation indexes: The concentration of the corticosterone in the supernatant of rats before and after given drugs.

SD rats [7] = system: SD rats
Protocol: as §3, §4

Sprague-Dawley rats [8] = assay type: in vivo; settings: tail vein; remark: listed apart in the source
[9] = continuous infusion 2 x MIR 1 hour, rats affected/rats
[10] = equivalent dose (2ED50), number of rats of n = 8
[11] = after 1 hour continuous infusion at 2 times the MIR, SD rats

In the case of `CCOC(=O)C(=O)c1cncn1[C@H](C)c1ccccc1` [Compound D81], the ED50 (Sprague-Dawley rats [1]) is reported as 0.5 to 1 mg/kg, the Approximate therapeutic index (Sprague-Dawley rats [1]) is reported as over 15.2 and the Righting reflex duration (Sprague-Dawley rats [2]) is reported as 1.35 ± 0.12 min. For the same compound, the Sedation duration (Sprague-Dawley rats [2]) was 4.87 ± 0.39 min, the Onset time (Sprague-Dawley rats [2]; unit min) was under 1 min and the “Adverse reaction: Convulsions” value (Sprague-Dawley rats [2]) was 0. For the same compound, the “Adverse reaction: Cough, broken-winded” value (Sprague-Dawley rats [2]) was 0, the “Adverse reaction: Euphoria” value (Sprague-Dawley rats [2]) was 0 and the “Adverse reaction: Four limbs rigidity” value (Sprague-Dawley rats [2]) was 1. For the same compound, the “Adverse reaction: Red urine” value (Sprague-Dawley rats [2]) was 8, the “Adverse reaction: Slower breathing, Tetany convulsion” value (from here on “Adverse reaction: Slower breathing”) (Sprague-Dawley rats [2]) was 0 and the “Adverse reaction: Systemic stiffness, Convulsions, Opisthotonus” value (“Adverse reaction: Systemic stiffness” for short) (Sprague-Dawley rats [2]) was 0. For the same compound, the “Adverse reaction: Tongue stretching” value (Sprague-Dawley rats [2]) was 0, the “Adverse reaction: Tremor” value (Sprague-Dawley rats [2]) was 1 and the “After the infusion is stopped: Righting reflex recovery time” value (shortened to “After the infusion is stopped”) (SD rats [3]) was 13 to 14 min. For the same compound, the “Recovery time after stopping infusion” value (SD rats [3]) was 15 to 25 min, the “Types and incidence of adverse reactions: Red urine” value (“Types and incidence … Red urine” for short) (SD rats [3]; [9]) was 6/6 and the “Types and incidence of adverse reactions: Tremor” value (shortened to “Types and incidence … Tremor”) (SD rats [3]; [9]) was 2/6. The “Types and incidence of adverse reactions: the four limbs rigidity” value (SD rats [3]; [9]) was “the four limbs rigidity(2/6)”, the Sedation onset time (SD rats [3]) was under 5 min and the Minimal lethal dose (Sprague-Dawley rats [4]) was over 12.6 mg/kg.
`C#CCOCC(=O)c1cc(F)nn1[C@H](C)c1ccccc1` [Compound C15] was tested, and the ED50 (Sprague-Dawley rats [5]; LORR, up and down method, tail vein, class symbols) was “++++ (++++ indicates that the measured ED50 is in the range of 2.00-10.00 mg/kg (excluding 2.00 mg/kg, including 6.00 mg/kg))”, the Approximate therapeutic index (Sprague-Dawley rats [5]) was over 3.4 and the Righting reflex duration (Sprague-Dawley rats [6]; 2ED50, tail vein, rats, n=8) was 2.13 ± 0.59 min. For the same compound, the Sedation duration (Sprague-Dawley rats [6]; 2ED50, tail vein, rats, n=8) was 5.3 ± 0.92 min, the Onset time (Sprague-Dawley rats [6]; 2ED50, tail vein, rats, n=8, unit s) was under 30 s and the “Adverse reaction: Convulsions” value (Sprague-Dawley rats [6]; [10]) was 0. For the same compound, the “Adverse reaction: Cough, broken-winded” value (Sprague-Dawley rats [6]; [10]) was 0, the “Adverse reaction: Euphoria” value (Sprague-Dawley rats [6]; [10]) was 0 and the “Adverse reaction: Red urine” value (Sprague-Dawley rats [6]; [10]) was 8. The “Adverse reaction: Slower breathing” value (Sprague-Dawley rats [6]; [10]) was 0, the “Adverse reaction: Systemic stiffness” value (Sprague-Dawley rats [6]; [10]) was 0 and the “Adverse reaction: Tongue stretching” value (Sprague-Dawley rats [6]; [10]) was 0. For the same compound, the “Adverse reaction: Tremor” value (Sprague-Dawley rats [6]; [10]) was 1, the “Adverse reaction: the four limbs rigidity” value (Sprague-Dawley rats [6]; [10]) was 0 and the “Give ACTH 30min later(S2) corticosterone concentration” value (adrenal cortex function; drug at 2ED50, 30 min after ACTH 25 ug/kg) was 267.99 ± 33.20. The “Baseline(S1) corticosterone concentration” value (adrenal cortex function; two hours after dexamethasone 0.5 mg/kg, before drug) was 145.90 ± 54.33, the “After the infusion is stopped” value (SD rats [7]; [11]) was 16 to 18 min and the “Recovery time after stopping infusion” value (SD rats [7]; [11]) was 30 to 36 min. The “Types and incidence … Red urine” value (SD rats [7]; [9]) was 6/6, the “Types and incidence … Tremor” value (SD rats [7]; [9]) was 1/6 and the Sedation onset time (SD rats [7]; continuous tail vein infusion at 2 times the MIR, SD rats) was under 5 min. The Minimal lethal dose (Sprague-Dawley rats [8]) was over 16.8 mg/kg.
In the case of `COC(OC)(OC)C(=O)c1c(F)cnn1[C@H](C)c1ccccc1` [Compound D29], the ED50 (Sprague-Dawley rats [1]) is reported as 0.04 to 0.5 mg/kg, the Approximate therapeutic index (Sprague-Dawley rats [1]) is reported as over 4.1 and the Righting reflex duration (Sprague-Dawley rats [2]) is reported as 1.24 ± 0.06 min. The Sedation duration (Sprague-Dawley rats [2]) was 2.26 ± 0.59 min, the Onset time (Sprague-Dawley rats [2]; unit s) was under 0.5 min and the “Adverse reaction: Convulsions” value (Sprague-Dawley rats [2]) was 0. For the same compound, the “Adverse reaction: Cough, broken-winded” value (Sprague-Dawley rats [2]) was 0, the “Adverse reaction: Euphoria” value (Sprague-Dawley rats [2]) was 0 and the “Adverse reaction: Four limbs rigidity” value (Sprague-Dawley rats [2]) was 3. The “Adverse reaction: Red urine” value (Sprague-Dawley rats [2]) was 8, the “Adverse reaction: Slower breathing” value (Sprague-Dawley rats [2]) was 0 and the “Adverse reaction: Systemic stiffness” value (Sprague-Dawley rats [2]) was 0. The “Adverse reaction: Tongue stretching” value (Sprague-Dawley rats [2]) was 0, the “Adverse reaction: Tremor” value (Sprague-Dawley rats [2]) was 4 and the “After the infusion is stopped” value (SD rats [3]) was 12 to 20 min. The “Recovery time after stopping infusion” value (SD rats [3]) was 20 to 25 min, the “Types and incidence … Red urine” value (SD rats [3]; [9]) was “Red urine(6/6), Tongue” and the “Types and incidence of adverse reactions: Tongue stretching” value (SD rats [3]; [9]) was “stretching(4/6)”. It also gave a Sedation onset time (SD rats [3]) of under 5 min and a Minimal lethal dose (Sprague-Dawley rats [4]) of over 3.6 mg/kg.
Compound `COC(OC)(OC)C(=O)c1ccnn1[C@H](C)c1ccccc1` [Compound D1] has an ED50 (Sprague-Dawley rats [1]) of 0.5 to 1 mg/kg, an Approximate therapeutic index (Sprague-Dawley rats [1]) of over 8.4 and a Righting reflex duration (Sprague-Dawley rats [2]) of 1.18 ± 0.43 min. The Sedation duration (Sprague-Dawley rats [2]) was 7.96 ± 2.14 min, the Onset time (Sprague-Dawley rats [2]; unit min) was under 1 min and the “Adverse reaction: Convulsions” value (Sprague-Dawley rats [2]) was 0. For the same compound, the “Adverse reaction: Cough, broken-winded” value (Sprague-Dawley rats [2]) was 0, the “Adverse reaction: Euphoria” value (Sprague-Dawley rats [2]) was 0 and the “Adverse reaction: Four limbs rigidity” value (Sprague-Dawley rats [2]) was 0. For the same compound, the “Adverse reaction: Red urine” value (Sprague-Dawley rats [2]) was 8, the “Adverse reaction: Slower breathing” value (Sprague-Dawley rats [2]) was 0 and the “Adverse reaction: Systemic stiffness” value (Sprague-Dawley rats [2]) was 0. For the same compound, the “Adverse reaction: Tongue stretching” value (Sprague-Dawley rats [2]) was 1, the “Adverse reaction: Tremor” value (Sprague-Dawley rats [2]) was 0 and the “After the infusion is stopped” value (SD rats [3]) was 18 to 24 min. The “Recovery time after stopping infusion” value (SD rats [3]) was 35 to 45 min, the “Types and incidence … Red urine” value (SD rats [3]; [9]) was 6/6 and the “Types and incidence of adverse reactions: Tongue stretching” value (SD rats [3]; [9]) was “Tongue stretching(2/6)”. For the same compound, the “Types and incidence … Tremor” value (SD rats [3]; [9]) was 2/6, the Sedation onset time (SD rats [3]) was under 5 min and the Minimal lethal dose (Sprague-Dawley rats [4]) was over 11.2 mg/kg.
